Data taken from US20230364119A1, “AUTOPHAGY ACTIVATOR” (Resonac Corporation, priority 2020, published 2023).

Legend:
[1] = system: mTOR gene; assay: mTOR gene expression suppression effect in human senescent fibroblasts (quantitative real-time PCR); type: cell-based
Experimental: Normal human fibroblasts (NB1RGB, RIKEN BRC Cell Bank) were cultured until confluent in D-MEM medium (manufactured by Sigma-Aldrich) to which 10% fetal bovine serum (manufactured by MP Biomedicals) was added. Thereafter, the cells were treated with 250 μM aqueous hydrogen peroxide for 2 hours, and cultured for 24 hours in D-MEM medium to which fresh 10% fetal bovine serum was added. The treatment with aqueous hydrogen peroxide and the cell culture operation were repeated three times, and the obtained fibroblasts were used as senescent fibroblasts.
The prepared senescent fibroblasts were prepared at a seeding density of 10000 cells/cm^2 and cultured for 24 hours in D-MEM medium (manufactured by Sigma-Aldrich) to which 10% fetal bovine serum (manufactured by MP Biomedicals) was added. Next, in Example 8, the inositol derivative A dissolved in purified water was added to the medium such that the final concentration of the inositol derivative A was 10-4% (V/V). […]
Then, using Nucleospin (registered trademark) RNA kit (manufactured by Takara Bio Inc.), RNA was extracted from senescent fibroblasts or normal human fibroblasts in each example, and cDNA was synthesized from the obtained RNA. Next, using this cDNA as a template, by quantitative real-time PCR, the expression level of mTOR gene was quantified using primers (manufactured by Takara Bio Inc.) specific to mTOR gene. […]

[2] = system: ATG5 gene; assay: ATG5 gene expression promoting effect in human neuroblastoma in the presence of amyloid β; type: cell-based
Experimental: In the presence of an autophagy activator, the expression levels of the LC3 gene, ATG5 gene, and Beclin 1 gene in human neuroblastoma (SH-SY5Y; obtained from ATCC) were measured by the following test method, and the effect of promoting the expression of the LC3 gene, ATG5 gene, and Beclin 1 gene by an autophagy activator was evaluated.
In the following examples and comparative examples, tests were performed by adding amyloid β, which is known to cause a decrease in autophagy in nerve cells, to each medium.
SH-SY5Y cells were prepared at a seeding density of 10000 cells/cm^2 and cultured for 24 hours in D-MEM medium/Ham's F-12 medium (manufactured by Sigma-Aldrich) to which 10% fetal bovine serum (manufactured by MP Biomedicals) was added. Next, in Example 15, the inositol derivative A dissolved in purified water was added to the medium such that the final concentration of the inositol derivative A was 10-4% (V/V). […]
Then, using Nucleospin (registered trademark) RNA kit (manufactured by Takara Bio Inc.), RNA was extracted from SH-SY5Y cells in each example, and cDNA was synthesized from the obtained RNA. Next, using this cDNA as a template, by quantitative real-time PCR, the expression level of each gene was quantified using primers (manufactured by Takara Bio Inc.) specific to the LC3 gene, ATG5 gene, and Beclin 1 gene, respectively. […]

O[C@H]1[C@H](O)[C@@H](O)[C@H](O)[C@@H](O)[C@H]1O [Comparative Example 2, myo-inositol]
Relative gene expression level mTOR ([1]; 24 hours, 10^−3% (V/V) inositol or inositol derivative A, with the vitamin derivative of the example where added, GAPDH-standardized, Comparative Example 3 (purified water) = 1.00): 0.95 | expression level of the mTOR gene, in words ([1]; compared to Comparative Example 3 (purified water only)): almost the same | expression level of the ATG5 gene, in words ([2]; SH-SY5Y cells with amyloid β, compared to Reference Example 3 (purified water only, no amyloid β)): slightly increased | Relative gene expression level ATG5 ([2]; SH-SY5Y cells, 20 μM amyloid β present, 48 hours, 10^−3% (V/V) inositol or inositol derivative A, with the vitamin derivative of the example where added, Reference Example 3 (purified water, no amyloid β) = 1.00): 1.39
